Reference: article PMC11815855, “Exploring the Structure–Activity Relationships of Albumin-Targeted Picoplatin-Based Platinum(IV) Prodrugs” (Inorganic Chemistry, 2025)

Columns and labels:
[1] = Serum pharmacokinetics and tumor/organ distribution (Pt by ICP-MS) in CT26-bearing Balb/c mice; assay type: in vivo; details: single i.v. dose equimolar to 20 mg/kg picoplatin
Procedure: CT-26 cells (5 × 10^5 cells in 50 μL of serum-free medium) were subcutaneously injected into the right flank of male Balb/c mice. […]. […] and the three maleimide-containing platinum(IV) complexes were dissolved in 30% PEG400-containing 0.9% NaCl and PBS (Cytiva, USA), respectively. […]. After a 10 min clotting period of the blood at RT, the serum was separated by centrifugation (900 g, 10 min, repeated twice). Tumor and organ accumulation of the drug was assessed at 5 and 24 h postadministration (2 animals per time point). Mice were euthanized via cervical dislocation, and their tumors and organs were excised. All collected samples were stored at −20 °C until further processing for Pt concentration analysis by ICP-MS. […] Approximately 15–30 mg of tissue (gravimetrically measured) was digested with 2 mL of 20% nitric acid and 100 μL of H2O2 in an open-vessel graphite digestion system (Labter, ODLAB; AHF Analysentechnik AG, Germany), using PFA vials and lids. […] Quantification of total Pt content was performed on a quadrupole-based ICP-MS instrument (Agilent 7800, Agilent Technologies, Tokyo, Japan), equipped with an Agilent SPS 4 autosampler and a MicroMist nebulizer. […] Rh was used as the internal standard for Pt quantification. […]

[2] = test system: CT26 tumors; test: Anticancer activity in vivo, CT26-bearing Balb/c mice; details: i.v. on days 3 and 10, dose equimolar to 20 mg/kg picoplatin
Procedure: Ten-week-old Balb/c mice were purchased from Envigo Laboratories (San Pietro al Natisone, Italy). […] Animals were controlled for distress development every day, and tumor size was assessed regularly by caliper measurement. Tumor volume was calculated using the formula: (length × width^2)/2.
CT26 cells (5 × 10^5 in serum-free medium) were injected subcutaneously into the right flank of male Balb/c mice. Therapy was started when tumor nodules were palpable (day 3). […] Mice were sacrificed by cervical dislocation in the case of a tumor length >20 mm, tumor ulceration, or other signs for distress.

CC(=O)[O][Pt]([Cl])([Cl])[O]C(=O)NCCN1C(=O)C=CC1=O.Cc1ccccn1.N [Pico-Mal]
platinum levels in the kidneys [1]: higher
impact on tumor growth [2]: inactive
